≈ marks a conversion by molar mass, not a printed value. Like-named read-outs stand apart in the source and are kept apart here.
Key:
Sarcoma 180 ascites = assay: Antitumor activity in mice bearing Sarcoma 180 ascites, single ip treatment on day 1; format: in vivo; details: for LTS (long term survivors) / T/C % (survival time as percentage of controls) / TOX (toxic deaths): single ip on day 1
Excerpt: Antitumor activity in mice bearing Sarcoma 180 ascites;
single intraperitoneal treatment on day 1. The results
are expressed as the time of survival of treated animals
as a percentage of the controls (T/C %), the number of
long term survivors (LTS) and toxic deaths (TOX).

P 388 leukemia = assay: Activity on P 388 leukemia in BDF1 mice (Table 3); format: in vivo
Excerpt: ^2 BDF1 mice received 10^6 ascites cells ip on Day 0 - Treatment

HeLa cells = assay: Inhibition of colony forming ability of cultured HeLa cells in vitro; format: cell-based; details: for IC50: Homo sapiens, read-out: ID50 (50% inhibiting dose)
Excerpt: Biological activity on cultured HeLa cells. Data
are expressed as 50% inhibiting dose (ng/ml) at
different times of exposure.

L 1210 leukemia = assay: Activity on L 1210 leukemia in BDF1 mice (Table 3); format: in vivo
Excerpt: ^1 BDF1 mice received 10^5 ascites cells ip on Day 0 - Treatment

Gross leukemia = assay: Activity on Gross leukemia in C3H/Hc mice (Table 3); format: in vivo
Excerpt: ^3 C3H/Hc mice received 2×10^6 leukemic cells iv on Day 0 -
Treatment iv on Days 1, 2, 3.

L1210 leukemia = assay: Activity on L1210 leukemia in BDF1 mice (Table 4); format: in vivo
Description: |Activity on L1210 leukemia |BDF1 mice were injected ip with 10^5 ascites |cells on Day 0 and treated ip on Day 1.

For `CC1OC(OC2CC(O)(C(=O)CO)Cc3c(O)c4c(c(O)c32)C(=O)c2ccccc2C4=O)CC(N)C1O` (stereo not shown) [4-demethoxyadriamycin], the “LTS (long term survivors)” value (Sarcoma 180 ascites; 0.25 mg/kg) was 7/10, the “T/C % (survival time as percentage of controls)” value (Sarcoma 180 ascites; 0.25 mg/kg) was “above 583%” and the “LTS (long term survivors)” value (Sarcoma 180 ascites; 0.5 mg/kg) was 6/10. The “T/C % (survival time as percentage of controls)” value (Sarcoma 180 ascites; 0.5 mg/kg) was “above 583%”, the “T/C % (survival time as percentage of controls)” value (Sarcoma 180 ascites; 1.0 mg/kg) was 218% and the “TOX (toxic deaths)” value (Sarcoma 180 ascites; 1.0 mg/kg) was 6/9. For the same compound, the “Activity relative to adriamycin” value (Sarcoma 180 ascites; Sarcoma 180 ascites, from Table 2) was “at least ten times more active than adriamycin”, the T/C % (P 388 leukemia; P 388, 0.25 mg/kg ip on Day 1) was 168% and the T/C % (P 388 leukemia; P 388, 0.5 mg/kg ip on Day 1) was 195%. The T/C % (P 388 leukemia; P 388, 1 mg/kg ip on Day 1) was 209%, the Tox (P 388 leukemia; P 388, 1 mg/kg ip on Day 1) was 2/10 and the “Activity relative to adriamycin (inhibition of colony forming ability)” value (HeLa cells; HeLa cells in vitro, from Table 1) was “about one hundred times more active than adriamycin”. For the same compound, the IC50 (HeLa cells; HeLa cells, 2 hrs. exposure) was 1.5 ng/mL (≈ 0.00292 µM), the IC50 (HeLa cells; HeLa cells, 8 hrs. exposure) was 0.34 ng/mL (≈ 0.000662 µM) and the IC50 (HeLa cells; HeLa cells, 24 hrs. exposure) was 0.14 ng/mL (≈ 0.000273 µM). The T/C % (L 1210 leukemia; L 1210, 0.25 mg/kg ip on Day 1) was 155%, the T/C % (L 1210 leukemia; L 1210, 0.5 mg/kg ip on Day 1) was 166% and the T/C % (L 1210 leukemia; L 1210, 1 mg/kg ip on Day 1) was 133%. For the same compound, the Tox (L 1210 leukemia; L 1210, 1 mg/kg ip on Day 1) was 10/10, the T/C % (Gross leukemia; 0.35 mg/kg iv on Days 1, 2, 3) was 228% and the Tox (Gross leukemia; 0.35 mg/kg iv on Days 1, 2, 3) was 1/10. For the same compound, the T/C % (Gross leukemia; 0.45 mg/kg iv on Days 1, 2, 3) was 214%, the Tox (Gross leukemia; 0.45 mg/kg iv on Days 1, 2, 3) was 1/10 and the T/C % (Gross leukemia; 0.6 mg/kg iv on Days 1, 2, 3) was 157%. For the same compound, the Tox (Gross leukemia; 0.6 mg/kg iv on Days 1, 2, 3) was 8/10.

With `COc1cccc2c1C(=O)c1c(O)c3c(c(O)c1C2=O)C[C@@](O)(C(=O)CO)C[C@@H]3O[C@H]1C[C@H](N)[C@H](O)[C@H](C)O1` [Adriamycin] the “LTS (long term survivors)” value (Sarcoma 180 ascites; 2.5 mg/kg) was 7/10, the “T/C % (survival time as percentage of controls)” value (Sarcoma 180 ascites; 2.5 mg/kg) was “above 583%” and the “LTS (long term survivors)” value (Sarcoma 180 ascites; 5.0 mg/kg) was 2/10. The “T/C % (survival time as percentage of controls)” value (Sarcoma 180 ascites; 5.0 mg/kg) was 211%, the “TOX (toxic deaths)” value (Sarcoma 180 ascites; 5.0 mg/kg) was 3/9 and the “T/C % (survival time as percentage of controls)” value (Sarcoma 180 ascites; 10.0 mg/kg) was 163%. For the same compound, the “TOX (toxic deaths)” value (Sarcoma 180 ascites; 10.0 mg/kg) was 4/10, the T/C % (P 388 leukemia; P 388, 2.5 mg/kg ip on Day 1) was 173% and the T/C % (P 388 leukemia; P 388, 5 mg/kg ip on Day 1) was 218%. For the same compound, the T/C % (P 388 leukemia; P 388, 10 mg/kg ip on Day 1) was 230%, the Tox (P 388 leukemia; P 388, 10 mg/kg ip on Day 1) was 1/10 and the IC50 (HeLa cells; HeLa, 2 h) was 125 ng/mL (≈ 0.23 µM). For the same compound, the IC50 (HeLa cells; HeLa, 8 h) was 28 ng/mL (≈ 0.0515 µM), the IC50 (HeLa cells; HeLa, 24 h) was 12.5 ng/mL (≈ 0.023 µM) and the T/C % (L 1210 leukemia; L 1210, 2.5 mg/kg ip on Day 1) was 155%. The T/C % (L 1210 leukemia; L 1210, 5 mg/kg ip on Day 1) was 166%, the Tox (L 1210 leukemia; L 1210, 5 mg/kg ip on Day 1) was 1/10 and the T/C % (L 1210 leukemia; L1210, 10 mg/kg ip on Day 1) was 155%. The Tox (L 1210 leukemia; L1210, 10 mg/kg ip on Day 1) was 4/10, the T/C % (Gross leukemia; 3.5 mg/kg iv on Days 1, 2, 3) was 164% and the T/C % (Gross leukemia; 4.4 mg/kg iv on Days 1, 2, 3) was 186%. For the same compound, the T/C % (Gross leukemia; 6.0 mg/kg iv on Days 1, 2, 3) was 214%, the Tox (Gross leukemia; 6.0 mg/kg iv on Days 1, 2, 3) was 3/10 and the T/C % (L1210 leukemia; L1210, 2.9 mg/kg ip on Day 1) was 141%. For the same compound, the LTS (L1210 leukemia; L1210, 4.4 mg/kg ip on Day 1) was 1/10, the T/C % (L1210 leukemia; L1210, 4.4 mg/kg ip on Day 1) was 152% and the T/C % (L1210 leukemia; L1210, 6.6 mg/kg ip on Day 1) was 158%. The LTS (L1210 leukemia; L1210, 10 mg/kg ip on Day 1) was 1/10 and the T/C % (L1210 leukemia; L1210, 10 mg/kg ip on Day 1) was 164%.

`Cc1cc2c(cc1C)C(=O)c1c(O)c3c(c(O)c1C2=O)CC(O)(C(=O)CO)CC3OC1CC(N)C(O)C(C)O1` (stereo not shown) [2,3-Dimethyl-4-demethoxy-adriamycin, 4-demethoxy-2,3-dimethyladriamycin] was tested, and the T/C % (L1210 leukemia; L1210, 1.9 mg/kg ip on Day 1) was 152%, the T/C % (L1210 leukemia; L1210, 2.9 mg/kg ip on Day 1) was 152% and the LTS (L1210 leukemia; L1210, 4.4 mg/kg ip on Day 1) was 1/10. For the same compound, the T/C % (L1210 leukemia; L1210, 4.4 mg/kg ip on Day 1) was 170%.

— patent publication US4125607A, “Daunosaminyl anthracyclinones and their use” (Societa' Farmaceutici Italia S.p.A., priority 1975, dated 1978)
